Experimental data published in article PMC7247319, “The mitochondria-targeted peptide SS-31 binds lipid bilayers and modulates surface electrostatics as a key component of its mechanism of action” (The Journal of Biological Chemistry, 2020).
Where a SMILES comes first, the peptide text is derived from it. [ ]: non-standard residue; d: D form. Dmt = Cc1cc(O)cc(C)c1C[C@H](N)C(=O)O

Test system: LUVs containing 20% TOCL or 20% POPG
Assay: ANS fluorescence reporter of surface potential of model membranes
Settings: increasing [peptide]/[lipid]eff, 20% TOCL or 20% POPG LUVs
Procedure: Figure 3. SS-31 binding and surface electrostatics. A, binding isotherms. Peptide was titrated with LUVs of the indicated composition (20% TOCL, [SS-31] = 7.5 μM and 20% POPG, [SS-31] = 3.8 μM) at 30-nmol total lipid increments in the presence of different concentrations of added KCl. Values shown are means ± S.D. (error bars) (n = 3), and lines show data fits based on Equation S3. […] B and C, effect of SS-31 binding on surface charge. Measurements of ζ (B) and ANS fluorescence (C) are shown as a function of [SS-31]/[lipid]^eff for membranes containing 20% TOCL and 20% POPG as indicated. Values shown are means ± S.D. (error bars) (n = 3).
To continue this analysis, we determined the relationship between SS-31 binding and surface electrostatics by two complementary approaches. […] As an independent technique, we measured the effect of SS-31 on surface electrostatics using 1-anilinonaphthalene-8-sulfonic acid (ANS), a fluorescent reporter whose binding to anionic bilayers increases as the magnitude of the ψs is reduced, measured as an increase in probe emission intensity ([42]) (Fig. 3C and Fig. S9D). […]
Steady-state fluorescence measurements were performed with a Fluorolog 3-22 spectrofluorometer (HORIBA Jobin-Yvon) equipped with photon-counting electronics, double-grating excitation and emission monochromators, automated Glan–Thompson polarizers, and a 450-watt xenon lamp. […]

For `Cc1cc(O)cc(C)c1C[C@H](NC(=O)[C@H](N)CCCNC(=N)N)C(=O)N[C@@H](CCCCN)C(=O)N[C@@H](Cc1ccccc1)C(N)=O` [SS-31, D-Arg-2′6′-dimethyl-Tyr-Lys-Phe-NH2] (H-[dR][Dmt]KF-NH2), which “effect on ANS-detected surface potential (ψs) of anionic model membranes” value is on record?
The value was “saturable ANS-detected reduction in the ψs”.
